Test results reported in paper PMC6102140, “Structural insight into the human mitochondrial tRNA purine N1-methyltransferase and ribonuclease P complexes” (The Journal of Biological Chemistry, 2018).

Experiments:
MRPP1MT+C(Δ194) = target: T1, MRPP1MT+C(Δ194) (Homo sapiens, UniProt Q7L0Y3); assay: differential scanning fluorimetry; assay type: binding; conditions: pH 7.5, 150 mM NaCl
T1 construct: gene TRMT10C; methyltransferase domain with C extension, residues 195-403, N-terminal His6 vector, E. coli; monomer
T1 sequence (Q7L0Y3 195-403): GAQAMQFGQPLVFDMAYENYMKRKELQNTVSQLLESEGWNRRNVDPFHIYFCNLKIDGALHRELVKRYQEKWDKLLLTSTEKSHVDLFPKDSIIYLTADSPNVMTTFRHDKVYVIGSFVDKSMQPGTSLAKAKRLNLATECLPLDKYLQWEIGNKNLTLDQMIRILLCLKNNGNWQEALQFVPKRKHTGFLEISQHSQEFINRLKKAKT

[1] = target: T2, MRPP1ΔMTS–MRPP2 complex (SDR activity of MRPP2) (Homo sapiens, UniProt Q99714); assay: differential scanning fluorimetry; assay type: binding; conditions: pH 7.5, 150 mM NaCl
T2 construct: gene HSD17B10; co-expressed in E. coli; His-tagged mature MRPP1 (40-403) and untagged full-length MRPP2; 2:4 complex, 194 kDa by SEC-MALS; with tRNA methyltransferase 10 homolog C
T2 sequence (Q99714 2-261): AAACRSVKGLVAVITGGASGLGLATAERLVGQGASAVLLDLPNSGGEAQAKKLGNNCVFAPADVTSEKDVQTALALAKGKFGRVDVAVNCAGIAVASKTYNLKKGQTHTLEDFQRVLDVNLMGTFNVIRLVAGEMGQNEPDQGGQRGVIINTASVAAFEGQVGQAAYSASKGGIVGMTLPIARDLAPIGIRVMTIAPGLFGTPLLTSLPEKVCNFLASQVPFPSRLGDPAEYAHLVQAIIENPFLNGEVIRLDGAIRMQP
T2 sequence (Q7L0Y3 40-403 partner): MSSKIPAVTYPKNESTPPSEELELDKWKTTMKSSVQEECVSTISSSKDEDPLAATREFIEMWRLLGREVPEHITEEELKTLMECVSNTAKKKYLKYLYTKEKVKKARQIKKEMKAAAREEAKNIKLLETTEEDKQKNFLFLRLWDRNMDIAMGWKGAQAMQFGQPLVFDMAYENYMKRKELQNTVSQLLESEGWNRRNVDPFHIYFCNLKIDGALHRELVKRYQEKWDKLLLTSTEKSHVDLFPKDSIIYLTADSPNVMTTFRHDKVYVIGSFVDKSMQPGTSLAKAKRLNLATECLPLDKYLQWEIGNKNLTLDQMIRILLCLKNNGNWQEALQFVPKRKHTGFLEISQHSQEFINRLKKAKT

[2] = target: T3, MRPP1ΔMTS–MRPP2 complex (SAM site / MTase activity of MRPP1) (Homo sapiens, UniProt Q7L0Y3); assay: differential scanning fluorimetry; assay type: binding; conditions: pH 7.5, 150 mM NaCl
T3 construct: gene TRMT10C; co-expressed in E. coli; His-tagged mature MRPP1 (40-403) and untagged full-length MRPP2; 2:4 complex, 194 kDa by SEC-MALS; with 3-hydroxyacyl-CoA dehydrogenase type-2
T3 sequence (Q7L0Y3 40-403): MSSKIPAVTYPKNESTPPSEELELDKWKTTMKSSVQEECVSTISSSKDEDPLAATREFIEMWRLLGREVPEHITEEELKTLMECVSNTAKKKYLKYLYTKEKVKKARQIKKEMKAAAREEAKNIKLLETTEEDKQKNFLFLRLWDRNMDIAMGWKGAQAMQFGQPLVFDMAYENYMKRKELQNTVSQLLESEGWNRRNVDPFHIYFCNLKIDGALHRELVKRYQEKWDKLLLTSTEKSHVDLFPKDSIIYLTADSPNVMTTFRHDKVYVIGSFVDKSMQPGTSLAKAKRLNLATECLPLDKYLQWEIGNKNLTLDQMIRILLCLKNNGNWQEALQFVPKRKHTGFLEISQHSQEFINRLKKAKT
T3 sequence (Q99714 2-261 partner): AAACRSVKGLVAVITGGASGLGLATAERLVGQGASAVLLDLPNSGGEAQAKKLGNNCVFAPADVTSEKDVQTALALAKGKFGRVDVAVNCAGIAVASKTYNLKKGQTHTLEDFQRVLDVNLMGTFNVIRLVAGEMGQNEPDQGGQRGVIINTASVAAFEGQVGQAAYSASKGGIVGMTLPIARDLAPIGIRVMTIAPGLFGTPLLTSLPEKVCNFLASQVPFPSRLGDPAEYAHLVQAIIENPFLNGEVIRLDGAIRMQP

MRPP1MT+C(Δ202) = target: T4, MRPP1MT+C(Δ202) (Homo sapiens, UniProt Q7L0Y3); assay: X-ray crystal structure, […] Å; assay type: binding; conditions: co-crystallised with SAM, 4 °C
T4 construct: gene TRMT10C; methyltransferase domain with C extension, residues 203-403, N-terminal His6 vector, E. coli; residues 380-403 disordered; monomer
T4 sequence (Q7L0Y3 203-403): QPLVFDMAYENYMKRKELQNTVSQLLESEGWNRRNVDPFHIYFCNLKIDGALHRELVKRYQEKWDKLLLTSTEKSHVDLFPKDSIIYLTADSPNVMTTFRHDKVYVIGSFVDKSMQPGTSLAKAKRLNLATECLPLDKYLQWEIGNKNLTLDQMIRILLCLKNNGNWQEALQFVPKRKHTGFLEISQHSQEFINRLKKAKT

MRPP1ΔMTS = target: T5, MRPP1ΔMTS (Homo sapiens, UniProt Q7L0Y3); assay: differential scanning fluorimetry; assay type: binding; conditions: 7.5 mM SAM; pH 7.5, 150 mM NaCl
T5 construct: gene TRMT10C; mature protein without mitochondrial targeting signal, residues 40-403, N-terminal His6 vector, E. coli; monomer/dimer mixture
T5 sequence (Q7L0Y3 40-403): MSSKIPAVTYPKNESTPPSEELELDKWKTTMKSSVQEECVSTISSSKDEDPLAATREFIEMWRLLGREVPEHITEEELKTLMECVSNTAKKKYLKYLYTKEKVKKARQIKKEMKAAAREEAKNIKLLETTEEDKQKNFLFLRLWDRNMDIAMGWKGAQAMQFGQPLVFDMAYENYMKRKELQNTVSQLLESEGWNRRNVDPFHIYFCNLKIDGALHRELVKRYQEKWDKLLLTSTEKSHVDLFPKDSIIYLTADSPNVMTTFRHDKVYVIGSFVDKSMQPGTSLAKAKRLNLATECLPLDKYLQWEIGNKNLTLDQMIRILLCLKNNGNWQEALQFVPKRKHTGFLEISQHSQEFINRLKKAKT

[3] = target: MRPP1N (N domain of MRPP1), expressed alone (human) (UniProt Q7L0Y3); assay: SEC; analytical SEC of single proteins, Superdex S200 10/300 GL (or KW403-4F), apparent mass from standards of known Mr, n = 3
[4] = substrate: CC(=O)[C@H]1CC[C@H]2[C@@H]3CC[C@H]4C[C@H](O)CC[C@]4(C)[C@H]3CC[C@]12C; assay: 3alpha-HSD (SDR) activity, fluorescence, Michaelis-Menten fit; assay type: biochemical, Homo sapiens; conditions: MRPP2 alone
Description: 3alpha-HSD (SDR) activity, fluorescence, Michaelis-Menten fit on MRPP2 | measured using the neurosteroid allopregnanolone as MRPP2 substrate

[5] = substrate: CC(=O)[C@H]1CC[C@H]2[C@@H]3CC[C@H]4C[C@H](O)CC[C@]4(C)[C@H]3CC[C@]12C; assay: as above; assay type: biochemical, Homo sapiens; conditions: in complex with MRPP1ΔMTS
[6] = target: the molecule itself; assay: SEC; analytical SEC of single proteins, Superdex S200 10/300 GL (or KW403-4F), apparent mass from standards of known Mr, n = 3
[7] = target: T6, MRPP2, untagged, co-expressed with His-tagged MRPP1 constructs (bicistronic plasmid) (human), Q99714; assay: SEC-SAXS; KW403-4F column in line with SAXS, 4.5 mg/ml; 50 mM sodium phosphate pH 7.4, 300 mM NaCl, 5% glycerol, 1% sucrose, 0.5 mM TCEP (for MRPP1, MRPP2 and MRPP1–MRPP2; buffer for MRPP3 alone not told); no tRNA; conditions: remark: other sources report otherwise
T6 chain: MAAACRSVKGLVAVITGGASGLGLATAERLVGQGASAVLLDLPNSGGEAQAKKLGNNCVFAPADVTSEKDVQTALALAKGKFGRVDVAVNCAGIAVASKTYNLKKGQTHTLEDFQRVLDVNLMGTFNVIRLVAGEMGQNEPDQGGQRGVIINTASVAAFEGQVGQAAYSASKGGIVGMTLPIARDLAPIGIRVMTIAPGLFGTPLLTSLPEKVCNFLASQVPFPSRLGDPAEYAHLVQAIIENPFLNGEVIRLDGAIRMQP

[8] = target: T7, MRPP2 (HSD17B10), expressed alone, tag removed (human), Q99714; assay: as above; conditions: remark: other sources report otherwise
T7 chain: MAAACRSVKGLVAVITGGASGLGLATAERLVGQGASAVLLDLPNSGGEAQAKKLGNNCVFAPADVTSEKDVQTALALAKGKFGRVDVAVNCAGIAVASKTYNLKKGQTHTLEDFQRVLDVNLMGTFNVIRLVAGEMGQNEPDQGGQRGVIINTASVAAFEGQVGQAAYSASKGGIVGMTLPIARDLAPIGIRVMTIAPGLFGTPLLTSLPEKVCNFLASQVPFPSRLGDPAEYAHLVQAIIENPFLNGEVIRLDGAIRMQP

[9] = ligand concentration not in text, text says MTase domain, construct boundary not stated

Molecule: Nc1ncnc2c1ncn2[C@@H]1O[C@H](CO)[C@@H](OP(=O)(O)O)[C@H]1O [3′-AMP]
- Tm shift (MRPP1MT+C(Δ194); [9]): 3.65 ± 0.16 °C

Molecule: NC(=O)C1=CN([C@@H]2O[C@H](COP(=O)(O)OP(=O)(O)OC[C@H]3O[C@@H](n4cnc5c(N)ncnc54)[C@H](O)[C@@H]3O)[C@@H](O)[C@H]2O)C=CC1 [NADH]
- Tm shift [1]: retained their ability to bind the cofactor (NADH) and methyl donor (SAM)

Molecule: Nc1ncnc2c1ncn2[C@@H]1O[C@H](CSCC[C@H](N)C(=O)O)[C@@H](O)[C@H]1O [S-adenosyl-homocysteine]
- Tm shift (MRPP1MT+C(Δ194); [9]): 5.00 ± 0.18 °C

Molecule: C[S+](CC[C@H](N)C(=O)O)C[C@H]1O[C@@H](n2cnc3c(N)ncnc32)[C@H](O)[C@@H]1O (stereo partly drawn) [SAM, S-adenosyl-L-methionine]
- Tm shift (MRPP1MT+C(Δ194); 7.5 mM SAM): 9.75 ± 0.48 °C
- Tm shift [2]: retained their ability to bind the cofactor (NADH) and methyl donor (SAM)
- X-ray crystal structure, 1.96 Å (MRPP1MT+C(Δ202)): Each MRPP1MT subunit is bound by a SAM molecule
- Tm shift (MRPP1ΔMTS): 6.04 ± 0.09 °C

Molecule: MRPP1N (N domain of MRPP1), expressed alone (from UniProt Q7L0Y3 40-203) (domain or fragment)
- stoichiometry N [3]: 2

B1: MRPP2 (Homo sapiens) (protein)
chain: AAACRSVKGLVAVITGGASGLGLATAERLVGQGASAVLLDLPNSGGEAQAKKLGNNCVFAPADVTSEKDVQTALALAKGKFGRVDVAVNCAGIAVASKTYNLKKGQTHTLEDFQRVLDVNLMGTFNVIRLVAGEMGQNEPDQGGQRGVIINTASVAAFEGQVGQAAYSASKGGIVGMTLPIARDLAPIGIRVMTIAPGLFGTPLLTSLPEKVCNFLASQVPFPSRLGDPAEYAHLVQAIIENPFLNGEVIRLDGAIRMQP
notes: full-length MRPP2, N-terminal His6 (pNIC28-Bsa4), TEV treated, E. coli; homotetramer
- Km [4]: 7.70 ± 0.50 µM

B2: MRPP1ΔMTS–MRPP2 complex (SDR activity of MRPP2) (Homo sapiens) (protein)
chain: AAACRSVKGLVAVITGGASGLGLATAERLVGQGASAVLLDLPNSGGEAQAKKLGNNCVFAPADVTSEKDVQTALALAKGKFGRVDVAVNCAGIAVASKTYNLKKGQTHTLEDFQRVLDVNLMGTFNVIRLVAGEMGQNEPDQGGQRGVIINTASVAAFEGQVGQAAYSASKGGIVGMTLPIARDLAPIGIRVMTIAPGLFGTPLLTSLPEKVCNFLASQVPFPSRLGDPAEYAHLVQAIIENPFLNGEVIRLDGAIRMQP
notes: co-expressed in E. coli; His-tagged mature MRPP1 (40-403) and untagged full-length MRPP2; 2:4 complex, 194 kDa by SEC-MALS; with tRNA methyltransferase 10 homolog C
- Km [5]: 3.40 ± 0.40 µM

B3: MRPP1_(ΔMTS) (mature mitochondrial RNase P protein 1, aa 40–403), expressed alone (natural protein, human, UniProt Q7L0Y3 40-403, looked up)
chain: MSSKIPAVTYPKNESTPPSEELELDKWKTTMKSSVQEECVSTISSSKDEDPLAATREFIEMWRLLGREVPEHITEEELKTLMECVSNTAKKKYLKYLYTKEKVKKARQIKKEMKAAAREEAKNIKLLETTEEDKQKNFLFLRLWDRNMDIAMGWKGAQAMQFGQPLVFDMAYENYMKRKELQNTVSQLLESEGWNRRNVDPFHIYFCNLKIDGALHRELVKRYQEKWDKLLLTSTEKSHVDLFPKDSIIYLTADSPNVMTTFRHDKVYVIGSFVDKSMQPGTSLAKAKRLNLATECLPLDKYLQWEIGNKNLTLDQMIRILLCLKNNGNWQEALQFVPKRKHTGFLEISQHSQEFINRLKKAKT
notes: human MRPP1 (TRMT10C/RG9MTD1), 403 aa precursor; residues 40-403, without the mitochondrial targeting signal (1-39); In solution a mixture of monomer and dimer; also called TRMT10C; RG9MTD1; source: E. coli BL21(DE3)-R3-pRARE2, purified
- stoichiometry N [6]: 2

B4: MRPP2, untagged, co-expressed with His-tagged MRPP1 constructs (bicistronic plasmid), Q99714 1-261 (natural protein)
chain: MAAACRSVKGLVAVITGGASGLGLATAERLVGQGASAVLLDLPNSGGEAQAKKLGNNCVFAPADVTSEKDVQTALALAKGKFGRVDVAVNCAGIAVASKTYNLKKGQTHTLEDFQRVLDVNLMGTFNVIRLVAGEMGQNEPDQGGQRGVIINTASVAAFEGQVGQAAYSASKGGIVGMTLPIARDLAPIGIRVMTIAPGLFGTPLLTSLPEKVCNFLASQVPFPSRLGDPAEYAHLVQAIIENPFLNGEVIRLDGAIRMQP
- stoichiometry N [7]: 4

B5: MRPP2 (HSD17B10), expressed alone, tag removed, Q99714 1-261 (natural protein)
chain: MAAACRSVKGLVAVITGGASGLGLATAERLVGQGASAVLLDLPNSGGEAQAKKLGNNCVFAPADVTSEKDVQTALALAKGKFGRVDVAVNCAGIAVASKTYNLKKGQTHTLEDFQRVLDVNLMGTFNVIRLVAGEMGQNEPDQGGQRGVIINTASVAAFEGQVGQAAYSASKGGIVGMTLPIARDLAPIGIRVMTIAPGLFGTPLLTSLPEKVCNFLASQVPFPSRLGDPAEYAHLVQAIIENPFLNGEVIRLDGAIRMQP
- stoichiometry N [8]: 4
